Experimental data reported in patent publication US4557930A, “Anticholesteremic anion exchange resins” (Mitsubishi Petrochemical Co., Ltd., priority 1983, dated 1985).

Tested on: descending aorta; plasma lipids
Assay: In vivo test by rabbit (arteriosclerosis inhibition test): plasma lipids and aorta
Set-up: species or system rabbit (New Zealand)
Text: Eight to fourteen male New Zealand species rabbits, weighing about 2.2 Kg, were used per each group. To the first group of rabbits was given 40 g/Kg-body weight/day of a mixture of a feed produced by Oriental Yeast Co. mixed with 0.67% of cholesterol for 12 weeks, and to the rabbits of the second and third groups were further given CR - 1 and Clofibrate, respectively.
CR - 1 and Clofibrate employed was mixed in the feed at levels of 1.25% and 0.25%, respectively.
During the tests, the plasma lipid concentrations were measured, and after 12 weeks, all the rabbits were sacrificed by bleeding. Descending aorta were subjected to incision and the conditions of arteriosclerosis were observed.

[1] = 0.67% cholesterol intake, 6 weeks, CR - 1 1.25%, Clofibrate 0.25% in feed
[2] = 0.67% cholesterol intake, 12 weeks, CR - 1 1.25%, Clofibrate 0.25% in feed

CCOC(=O)C(C)(C)Oc1ccc(Cl)cc1 [Clofibrate]
Total plasma: Cholesterol [1]: 1810 ± 124 mg/dL | Total plasma: Triglyceride [1]: 337.1 ± 66.1 mg/dL | Total plasma: β-Lipoprotein [1]: 5038 ± 450 mg/dL | Aorta: Area of blood vessel at arteriosclerosis [2]: 8.0 ± 1.4 cm^2 | Aorta: Inhibition of arteriosclerosis [2]: 18.0% | Aorta: Total area [2]: 17.7 ± 0.5 cm^2 | Total plasma: Cholesterol [2]: 1895 ± 117 mg/dL | Total plasma: Triglyceride [2]: 336.8 ± 39.7 mg/dL | Total plasma: β-Lipoprotein [2]: 4385 ± 574 mg/dL | Aorta: Percentage of arteriosclerosis ((Area at arteriosclerosis)/(Total blood vessel area) × 100, 0.67% cholesterol intake, 12 weeks): 44.2 ± 7.0%
